Reference: publication PMC3446790 (Cellular signalling, 2010)
“Also recorded” adds a separate entry of the source.

How the values were obtained:
recombinant ATX = recombinant ATX (Homo sapiens, UniProt Q13822); assay: ATX assay; type: biochemical; conditions: FS-3 substrate
IEC-6 cells = assay: DNA fragmentation ELISA, camptothecin-induced apoptosis; type: cell-based, rat
S1P4 [1] = molecular target: T1, S1P4 (Homo sapiens, UniProt O95977); assay: Antagonism of S1P-induced Ca2+ mobilization in S1P4-expressing HTC4 cells; type: cell-based
T1 sequence (O95977 1-384): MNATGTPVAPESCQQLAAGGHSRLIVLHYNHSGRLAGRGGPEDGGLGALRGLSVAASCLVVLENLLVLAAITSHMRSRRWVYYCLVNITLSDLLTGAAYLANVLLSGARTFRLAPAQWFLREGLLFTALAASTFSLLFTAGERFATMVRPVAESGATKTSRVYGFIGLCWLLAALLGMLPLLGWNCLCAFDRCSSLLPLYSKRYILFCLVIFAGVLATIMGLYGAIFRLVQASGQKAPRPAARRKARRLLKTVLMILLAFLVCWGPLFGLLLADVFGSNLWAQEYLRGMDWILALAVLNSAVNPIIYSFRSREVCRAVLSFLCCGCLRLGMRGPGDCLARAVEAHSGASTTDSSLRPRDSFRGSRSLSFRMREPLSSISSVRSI

S1P5 [2] = molecular target: T2, S1P5 (Homo sapiens, UniProt Q9H228); assay: Antagonism of S1P-induced Ca2+ mobilization in S1P5-expressing HTC4 cells; type: cell-based
S1P2 [3] = molecular target: T3, S1P2 (Homo sapiens, UniProt O95136); assay: Ca2+ mobilization; type: cell-based; conditions: concentrations up to 10 μM
S1P3 [4] = molecular target: T4, S1P3 (Homo sapiens, UniProt Q99500); assay: Ca2+ mobilization; type: cell-based; conditions: Ca2+ mobilization, concentrations up to 10 μM
P2Y10/Gα16 = P2Y10/Gα16 (Homo sapiens, UniProt O00398+P30679); assay: Antagonism of S1P-induced Ca2+ mobilization in CHO cells expressing P2Y10/Gα16; type: cell-based
[5] = tested on: ERK1/2 and AKT in IEC-6 cells; assay: Immunoblot analysis of ERK1/2 and AKT phosphorylation; type: cell-based, rat
S1P5 [6] = molecular target: T2, S1P5; assay: Ca2+ mobilization; type: cell-based; conditions: concentrations up to 10 μM
LPA1,2,3,4,5 and GPR87 = assay: Ca2+ mobilization in cells transfected with LPA receptors; type: cell-based; conditions: data not shown
S1P1 [7] = molecular target: T5, S1P1 (Homo sapiens, UniProt P21453); assay: Receptor desensitization assay in S1P1-expressing HTC4 cells; type: cell-based; conditions: 300 nM, 2 h preincubation
S1P4 [8] = molecular target: T1, S1P4; assay: Ca2+ mobilization; type: cell-based; conditions: Ca2+ mobilization, concentrations up to 10 μM
S1P1 [9] = molecular target: T5, S1P1; assay: Antagonism of S1P-induced Ca2+ mobilization in S1P1-expressing HTC4 cells; type: cell-based
S1P2 [10] = molecular target: T3, S1P2; assay: Antagonism of S1P-induced Ca2+ mobilization in S1P2-expressing HTC4 cells; type: cell-based
sphingosine kinase 1 = conditions: cited from earlier work
S1P1-eGFP = S1P1-eGFP (Homo sapiens, UniProt P21453); type: cell-based; conditions: 100 nM, 30 min, HEK293
S1P3 [11] = molecular target: T4, S1P3; assay: Antagonism of S1P-induced Ca2+ mobilization in S1P3-expressing HTC4 cells; type: cell-based
C57BL/6 mice = assay: Whole blood lymphocyte counting in mice; type: in vivo; conditions: 1 mg/kg intraperitoneal
S1P1 [12] = molecular target: T5, S1P1; assay: Ca2+ mobilization; type: cell-based; conditions: Ca2+ mobilization, concentrations up to 10 μM
[13] = shift of S1P dose response curve

T2 sequence (Q9H228 whole entry, species assumed): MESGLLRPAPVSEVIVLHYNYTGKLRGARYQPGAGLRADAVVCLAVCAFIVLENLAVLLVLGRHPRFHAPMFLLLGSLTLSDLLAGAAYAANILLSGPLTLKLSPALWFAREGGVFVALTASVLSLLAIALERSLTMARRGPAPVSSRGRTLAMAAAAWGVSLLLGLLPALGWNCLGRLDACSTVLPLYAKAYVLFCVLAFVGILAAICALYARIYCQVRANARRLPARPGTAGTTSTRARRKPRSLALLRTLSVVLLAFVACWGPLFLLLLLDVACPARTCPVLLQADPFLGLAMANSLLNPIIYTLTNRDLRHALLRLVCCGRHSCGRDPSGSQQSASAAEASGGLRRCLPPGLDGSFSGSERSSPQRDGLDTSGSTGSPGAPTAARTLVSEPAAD
T4 sequence (Q99500 whole entry, species assumed): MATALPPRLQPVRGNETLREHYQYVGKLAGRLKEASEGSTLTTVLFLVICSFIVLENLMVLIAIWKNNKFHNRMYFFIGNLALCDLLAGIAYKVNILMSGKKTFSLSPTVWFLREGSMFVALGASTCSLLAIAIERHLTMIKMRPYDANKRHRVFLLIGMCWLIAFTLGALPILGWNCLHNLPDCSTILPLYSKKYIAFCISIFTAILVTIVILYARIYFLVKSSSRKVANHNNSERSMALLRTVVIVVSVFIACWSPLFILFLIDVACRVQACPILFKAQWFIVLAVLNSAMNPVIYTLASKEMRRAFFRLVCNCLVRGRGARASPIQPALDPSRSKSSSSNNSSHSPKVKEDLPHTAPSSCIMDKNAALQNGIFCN
T3 sequence (O95136 whole entry, species assumed): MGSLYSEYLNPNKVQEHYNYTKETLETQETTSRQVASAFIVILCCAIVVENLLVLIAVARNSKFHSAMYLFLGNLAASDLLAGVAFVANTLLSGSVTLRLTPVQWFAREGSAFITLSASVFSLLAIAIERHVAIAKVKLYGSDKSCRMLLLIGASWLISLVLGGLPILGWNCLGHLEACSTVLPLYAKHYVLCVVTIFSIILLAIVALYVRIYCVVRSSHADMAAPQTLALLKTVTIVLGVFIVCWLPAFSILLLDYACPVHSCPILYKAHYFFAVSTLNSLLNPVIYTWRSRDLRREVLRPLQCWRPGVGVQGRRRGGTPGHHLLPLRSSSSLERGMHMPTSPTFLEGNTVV

CCCCCCCCc1ccc(CC[C@](N)(/C=C/P(=O)(O)O)CO)cc1 [(S)-ene, (S)-FTY720-vinylphosphonate]
mechanism of ATX inhibition (recombinant ATX): competitive
Ki (recombinant ATX; read-out: Ki, ATX, affinity for free enzyme): 1000 nM
effect of PTX treatment on the antiapoptotic action (IEC-6 cells; 100 ng/mL PTX overnight, 300 nM compound): partially inhibited
concentration of maximal protection against DNA fragmentation (IEC-6 cells; 20 μM camptothecin 5 h, inverse bell-shape curve): 300 nM
reduction in DNA fragmentation elicited by camptothecin (IEC-6 cells; 15 min pretreatment, 20 μM camptothecin 5 h): significant and dose-dependent reduction
attenuation of DNA fragmentation at concentrations above 1 μM (IEC-6 cells; above 1 μM): no longer showed an attenuation
antagonist character at S1P4 (S1P4 [1]; S1P near EC70): full antagonist
Ki (S1P4 [1]; read-out: Ki, S1P4, cotreated with 5 nM S1P, ± SD): 1190 nM
antagonist character at S1P5 (S1P5 [2]; S1P near EC70): partial antagonist
maximal % inhibition of the S1P response, S1P5 (S1P5 [2]; at 30, 30 nM S1P): 60.0% inhibition at 30 mM (30 nM S1P)
S1P2 activation (in words) (S1P2 [3]): failed to activate
S1P3 activation (in words) (S1P3 [4]): inactive
inhibition of the S1P response, P2Y10 (P2Y10/Gα16; 300 nM S1P): No inhibition at 30 mM (300 nM S1P)
inhibitory effect on P2Y10 when co-applied with S1P (P2Y10/Gα16; concentrations up to 30 μM): no inhibitory effect
effect of overnight PTX treatment on ERK1/2 activation ([5]; 100 ng/mL PTX, S1P 300 nM 5 min, (S)- or (R)-ene 1 μM 10 min): no significant effect
time of peak ERK1/2 and AKT phosphorylation ([5]; IEC-6 cells): 5 to 15 min
ERK1/2 and AKT phosphorylation ([5]; IEC-6 cells, 100 nM): elicited ERK1/2 and AKT phosphorylation
S1P5 activation (in words) (S1P5 [6]): failed to activate
Ca2+ mobilization responses in cells transfected with LPA receptors (LPA1,2,3,4,5 and GPR87): unable to detect
desensitization of the S1P1 response to S1P after preincubation (S1P1 [7]): almost no effect; also recorded: did not induce
S1P4 activation (in words) (S1P4 [8]): failed to activate
antagonist character at S1P1 (S1P1 [9]; S1P near EC70): full antagonist
pKb, S1P1 (Schild analysis) (S1P1 [9]; average residual error 1.09): 7.10 M
Ki (S1P1 [9]; read-out: Ki, S1P1, cotreated with 3 nM S1P, ± SD): 384 nM
mechanism of antagonism, S1P1 (S1P1 [9]; [13]): competitive inhibition
antagonist character at S1P2 (S1P2 [10]; S1P near EC70): partial antagonist
maximal % inhibition of the S1P response, S1P2 (S1P2 [10]; at 30, 30 nM S1P): 40.0% inhibition at 30 mM (30 nM S1P)
inhibition of sphingosine kinase 1 (sphingosine kinase 1): inhibitor
S1P1-eGFP receptor internalization (S1P1-eGFP): failed to cause redistribution; also recorded: did not induce; also recorded: failed to cause receptor internalization
antagonist character at S1P3 (S1P3 [11]; S1P near EC70): full antagonist
pKb, S1P3 (Schild analysis) (S1P3 [11]; average residual error 0.62): 7.61 M
Ki (S1P3 [11]; read-out: Ki, S1P3, cotreated with 10 nM S1P, ± SD): 39 nM
mechanism of antagonism, S1P3 (S1P3 [11]; [13]): competitive inhibition
decrease in circulating lymphocytes (C57BL/6 mice; 6 h): approximately 20%
circulating lymphocyte counts at 24 h (C57BL/6 mice; 24 h): restored to pretreatment levels; also recorded: no significant decrease
S1P1 activation, agonist character (in words) (S1P1 [12]): did not activate
